Assay results published in patent US20250003877A1, “Silyl Bridged Dyes” (priority 2021, published 2025).
Where two headings read alike, the source gives them in different places.

How the values were obtained:
[1] = literature values; cited from earlier work
[2] = spirolactone dyes, table title says PBS, text (b560-b564) says maximal ε when ring-opened in EtOH/0.1% TFA

Cc1ccccc1C1=c2cc3c(cc2[Si](C)(C)c2cc4c(cc21)CCCN4C)=[N+](C)CCC3 [Compound 016, 1,11,13,13-Tetramethyl-6-(o-tolyl)-2,3,4,8,9,10,11,13-octahydrosilino[3,2-g:5,6-g′]diquinolin-1-ium, reference compound]
emission wavelength, literature value [1]: 689 nm
excitation wavelength, literature value [1]: 674 nm
ε, literature value [1]: 1.3×10^5
ϕ, literature value [1]: 0.35
Brightness (ϕ × ε): 41,850
Em (nm): 692 nm
Ex (nm): 674 nm
ε (M^−1 cm^−1): 135,000 M^−1 cm^−1
ϕ (quantum yield) (PBS, pH 7.4): 0.31

Cc1ccccc1C1=C2C=CC(=[N+](C)C)C=C2[Si](C)(C)c2cc(N(C)C)ccc21 [Compound 001, N-(7-(Dimethylamino)-5,5-dimethyl-10-(o-tolyl)dibenzo[b,e]silin-3(5H)-ylidene)-N-methylmethanaminium, reference compound]
emission wavelength, literature value [1]: 658 nm
excitation wavelength, literature value [1]: 644 nm
ε, literature value [1]: 1.1×10^5
ϕ, literature value [1]: 0.31
Brightness (ϕ × ε) (PBS): 43,102
Em (nm) (PBS): 663 nm
Ex (nm) (PBS): 648 nm
ε (M^−1 cm^−1) (PBS): 126,400 M^−1 cm^−1
ϕ (quantum yield) (PBS, pH 7.4): 0.34

CN(C)c1ccc2c(c1)[Si@](C)(CCCN=[N+]=[N-])c1cc(N(C)C)ccc1[C@]21OC(=O)c2ccccc21 [Compound 053, (5s,10s)-5-(3-Azidopropyl)-3,7-bis(dimethylamino)-5-methyl-3′H,5H-spiro[dibenzo[b,e]siline-10,1′-isobenzofuran]-3′-one]
Em (nm) (PBS): 666 nm
Ex (nm) (PBS): 645 nm
ϕ (quantum yield) (PBS, pH 7.4): 0.43
ε (M^−1 cm^−1) [2]: 206,700 M^−1 cm^−1

O=C1OC2(c3ccccc31)c1ccc(N3CCC3)cc1[Si](c1ccccc1)(c1ccccc1)c1cc(N3CCC3)ccc12 [Compound 033, 3,7-Di(azetidin-1-yl)-5,5-diphenyl-3′H,5H-spiro[dibenzo[b,e]siline-10,1′-isobenzofuran]-3′-one]
extinction coefficient (maximum) in EtOH/0.1% TFA (EtOH/0.1% TFA): 80,000 M−1 cm−1
Em (nm) (SDS): 681 nm
Ex (nm) (SDS): 664 nm
extinction coefficient in anhydrous EtOH/0.1% TFA (anhydrous EtOH/0.1% TFA): ~124 000 M−1 cm-1
ε (M^−1 cm^−1) [2]: 80,000 M^−1 cm^−1

COc1cccc(OC)c1C1=C2C=CC(=[N+]3CCC3)C=C2[Si](C)(CCCCl)c2cc(N3CCC3)ccc21 (centres unmarked) [Compound 029, 1-(7-(Azetidin-1-yl)-5-(3-chloropropyl)-10-(2,6-dimethoxyphenyl)-5-methyldibenzo[b,e]silin-3(5H)-ylidene)azetidin-1-ium]
Brightness (ϕ × ε) (PBS): 86,400
Em (nm) (PBS): 670 nm
Ex (nm) (PBS): 653 nm
ε (M^−1 cm^−1) (PBS): 180,000 M^−1 cm^−1
ϕ (quantum yield) (PBS, pH 7.4): 0.48

Cc1ccccc1C1=c2cc3c(cc2[Si](C)(CCCCl)c2cc4c(cc21)CCCN4C)=[N+](C)CCC3 (centres unmarked) [Compound 019, 13-(3-Chloropropyl)-1,11,13-trimethyl-6-(o-tolyl)-2,3,4,8,9,10,11,13-octahydrosilino[3,2-g:5,6-g′]diquinolin-1-ium]
Brightness (ϕ × ε) (PBS): 41,250
Em (nm) (PBS): 694 nm
Ex (nm) (PBS): 677 nm
ε (M^−1 cm^−1) (PBS): 125,000 M^−1 cm^−1
ϕ (quantum yield) (PBS, pH 7.4): 0.33

Cc1ccccc1C1=C2C=CC(=[N+]3CCC3)C=C2[Si](c2ccccc2)(c2ccccc2)c2cc(N3CCC3)ccc21 [Compound 025, 1-(7-(Azetidin-1-yl)-5,5-diphenyl-10-(o-tolyl)dibenzo[b,e]silin-3(5H)-ylidene)azetidin-1-ium]
Brightness (ϕ × ε) (PBS): 63,222
Em (nm) (PBS): 680 nm
Ex (nm) (PBS): 663 nm
ε (M^−1 cm^−1) (PBS): 154,200 M^−1 cm^−1
ϕ (quantum yield) (PBS, pH 7.4): 0.41

C=C[Si]1(C)C2=CC(=[N+](C)C)C=CC2=C(c2ccccc2C)c2ccc(N(C)C)cc21 (centres unmarked) [Compound 003, N-(7-(Dimethylamino)-5-methyl-10-(o-tolyl)-5-vinyldibenzo[b,e]silin-3(5H)-ylidene)-N-methylmethanaminium]
Brightness (ϕ × ε) (PBS): 48,924
Em (nm) (PBS): 668 nm
Ex (nm) (PBS): 651 nm
ε (M^−1 cm^−1) (PBS): 141,400 M^−1 cm^−1
ϕ (quantum yield) (PBS, pH 7.4): 0.35

Cc1ccccc1C1=c2cc3c(cc2[Si](c2ccccc2)(c2ccccc2)c2cc4c(cc21)CCCN4C)=[N+](C)CCC3 [Compound 018, 1,11-Dimethyl-13,13-diphenyl-6-(o-tolyl)-2,3,4,8,9,10,11,13-octahydrosilino[3,2-g:5,6-g′]diquinolin-1-ium]
Brightness (ϕ × ε) (PBS): 41,524
Em (nm) (PBS): 710 nm
Ex (nm) (PBS): 690 nm
ε (M^−1 cm^−1) (PBS): 148,300 M^−1 cm^−1
ϕ (quantum yield) (PBS, pH 7.4): 0.28

Cc1ccccc1C1=c2cc3c(cc2[Si](C)(C)c2cc4c(cc21)CCN4C)=[N+](C)CC3 [Compound 020, 1,9,11,11-Tetramethyl-5-(o-tolyl)-2,3,7,8,9,11-hexahydrosilino[3,2-f:5,6-f]diindol-1-ium, reference compound]
emission wavelength, literature value [1]: 712 nm
excitation wavelength, literature value [1]: 691 nm
ε, literature value [1]: 1.0×10^5
ϕ, literature value [1]: 0.12
Brightness (ϕ × ε): 17,000
Em (nm): 715 nm
Ex (nm): 690 nm
ε (M^−1 cm^−1): 100,000 M^−1 cm^−1
ϕ (quantum yield) (PBS, pH 7.4): 0.17

Cc1ccccc1C1=c2cc3c(cc2[Si](c2ccccc2)(c2ccccc2)c2cc4c(cc21)CCN4C)=[N+](C)CC3 [Compound 022, 1,9-Dimethyl-11,11-diphenyl-5-(o-tolyl)-2,3,7,8,9,11-hexahydrosilino[3,2-f:5,6-f′]diindol-1-ium]
Brightness (ϕ × ε) (PBS): 12,870
Em (nm) (PBS): 737 nm
Ex (nm) (PBS): 710 nm
ε (M^−1 cm^−1) (PBS): 117,000 M^−1 cm^−1
ϕ (quantum yield) (PBS, pH 7.4): 0.11

C[Si@]1(CCCCl)c2cc(N3CCC3)ccc2[C@]2(OC(=O)c3ccccc32)c2ccc(N3CCC3)cc21 [Compound 036, (5r,10r)-3,7-Di(azetidin-1-yl)-5-(3-chloropropyl)-5-methyl-3′H,5H-spiro[dibenzo[b,e]siline-10,1′-isobenzofuran]-3′-one]
Em (nm) (PBS): 666 nm
Ex (nm) (PBS): 648 nm
ϕ (quantum yield) (PBS, pH 7.4): 0.53
ε (M^−1 cm^−1) [2]: 213,200 M^−1 cm^−1

CN(C)c1ccc2c(c1)[Si@](C)(CCCI)c1cc(N(C)C)ccc1[C@]21OC(=O)c2ccccc21 [Compound 047, (5s,10s)-3,7-Bis(dimethylamino)-5-(3-iodopropyl)-5-methyl-3′H,5H-spiro[dibenzo[b,e]siline-10,1′-isobenzofuran]-3′-one]
Em (nm) (PBS): 665 nm
Ex (nm) (PBS): 645 nm
ϕ (quantum yield) (PBS, pH 7.4): 0.43
ε (M^−1 cm^−1) [2]: 115,000 M^−1 cm^−1

CCCCCCCC[Si]1(CCCCCCCC)C2=CC(=[N+](C)C)C=CC2=C(c2ccccc2C)c2ccc(N(C)C)cc21 [Compound 011, N-(7-(Dimethylamino)-5,5-dioctyl-10-(o-tolyl)dibenzo[b,e]silin-3(5H)-ylidene)-N-methylmethanaminium]
Brightness (ϕ × ε) (EtOH): 89,091
fluorescence and scatter (EtOH): bright fluorescence and no scatter peak
ε (M^−1 cm^−1) (EtOH): 156,300 M^−1 cm^−1
ϕ (quantum yield) (EtOH): 0.57
Em (nm) (PBS): 666 nm
Ex (nm) (PBS): 651 nm
ε (M^−1 cm^−1) (PBS): low extinction coefficient
Rayleigh scatter (PBS, 1 μM concentration): pronounced Rayleigh scatter peak
ϕ (quantum yield) (PBS, pH 7.4): 0.18

Cc1ccccc1C1=C2C=CC(=[N+](C)C)C=C2[Si](C)(CCCCl)c2cc(N(C)C)ccc21 (centres unmarked) [Compound 009, N-(5-(3-Chloropropyl)-7-(dimethylamino)-5-methyl-10-(o-tolyl)dibenzo[b,e]silin-3(5H)-ylidene)-N-methylmethanaminium]
Brightness (ϕ × ε) (PBS): 64,113
Em (nm) (PBS): 665 nm
Ex (nm) (PBS): 650 nm
ε (M^−1 cm^−1) (PBS): 180,600 M^−1 cm^−1
ϕ (quantum yield) (PBS, pH 7.4): 0.36
brighter than dimethylsilyl counterpart (vs 001 (for 002, 009) or vs 016 (for 017), PBS): 50%

COc1cccc(OC)c1C1=C2C=CC(=[N+](C)C)C=C2[Si](C)(CCCCl)c2cc(N(C)C)ccc21 (centres unmarked) [Compound 030, N-(5-(3-Chloropropyl)-10-(2,6-dimethoxyphenyl)-7-(dimethylamino)-5-methyldibenzo[b,e]silin-3(5H)-ylidene)-N-methylmethanaminium]
Brightness (ϕ × ε) (PBS): 76,000
Em (nm) (PBS): 673 nm
Ex (nm) (PBS): 655 nm
ε (M^−1 cm^−1) (PBS): 200,000 M^−1 cm^−1
ϕ (quantum yield) (PBS, pH 7.4): 0.38

Cc1ccccc1C1=C2C=CC(=[N+](C)C)C=C2[Si]2(CCCCC2)c2cc(N(C)C)ccc21 [Compound 014, N-(7-(Dimethylamino)-10-(o-tolyl)-3H-spiro[dibenzo[b,e]siline-5,1′-silinan]-3-ylidene)-N-methylmethanaminium]
Brightness (ϕ × ε) (PBS): 56,610
Em (nm) (PBS): 666 nm
Ex (nm) (PBS): 650 nm
ε (M^−1 cm^−1) (PBS): 170,000 M^−1 cm^−1
ϕ (quantum yield) (PBS, pH 7.4): 0.33

CN(C)c1ccc2c(c1)[Si@](C)(CCCI)c1cc(N(C)C)ccc1[C@@]21OC(=O)c2ccccc21 [Compound 048, (5r,10r)-3,7-Bis(dimethylamino)-5-(3-iodopropyl)-5-methyl-3′H,5H-spiro[dibenzo[b,e]siline-10,1′-isobenzofuran]-3′-one]
Em (nm) (PBS): 665 nm
Ex (nm) (PBS): 645 nm
ϕ (quantum yield) (PBS, pH 7.4): 0.45
ε (M^−1 cm^−1) [2]: 144,000 M^−1 cm^−1

C[Si@]1(CCCCl)c2cc(N3CCC3)ccc2[C@@]2(OC(=O)c3ccccc32)c2ccc(N3CCC3)cc21 [Compound 035, (5s,10s)-3,7-Di(azetidin-1-yl)-5-(3-chloropropyl)-5-methyl-3′H,5H-spiro[dibenzo[b,e]siline-10,1′-isobenzofuran]-3′-one]
Em (nm) (PBS): 666 nm
Ex (nm) (PBS): 648 nm
ε (M^−1 cm^−1) [2]: 183,000 M^−1 cm^−1

CN(C)c1ccc2c(c1)[Si@](C)(CCCSCC(=O)O)c1cc(N(C)C)ccc1[C@@]21OC(=O)c2ccccc21 [Compound 064, 2-((3-((5r,10r)-3,7-Bis(dimethylamino)-5-methyl-3′-oxo-3′H,5H-spiro[dibenzo[b,e]siline-10,1′-isobenzofuran]-5-yl)propyl)thio)acetic acid]
Em (nm) (PBS): 665 nm
Ex (nm) (PBS): 645 nm
ϕ (quantum yield) (PBS, pH 7.4): 0.45
ε (M^−1 cm^−1) [2]: 160,400 M^−1 cm^−1
